Reference: patent US20250262223A1, “METHODS FOR THE TREATMENT OF BIOLOGICAL AGING” (BIOVIE INC., priority 2022, published 2025)

Legend:
[1] = Phase 3 trial, metabolic changes and correlations; format: in vivo, human
Experimental: Subjects metabolic and correlation changes were analyzed. Many of the genes associated with LOAD (late onset Alzheimer's disease) are related to cholesterol metabolism, which is decreased in AD neuron membranes. Insulin and glycemic controls are known to be involved in neurodegeneration. […] Increased mean amplitude of glycemic excursion (MAGE from CGM) increased risk of Alzheimer's disease progression. Leptin is an anti-inflammatory, neuroprotective and is decreased in AD. […] The results are described in Tables 4 and 5.
FIGS. 17A-17C illustrates graphs representing increased fasting insulin and HOMA2-% B with decreased HOMA2-% S w/o hypoglycemia. Table 10 provides additional information regarding the fasting insulin and HOMA2-% B with decreased HOMA2-% S w/o hypoglycemia.

[2] = Phase 3 imaging sub-study FDG-PET; format: in vivo, human; settings: subjects with a baseline whole cortex suvr <1.29; blinded Phase 3 data, NE3107 and placebo pooled
Experimental: Subjects were analyzed using a fluorodeoxyglucose (FDG)-positron emission tomography (PET) imaging scans. FDG-PET standardized uptake value ratios (“suvr”) were increased in 14/24 subjects with a baseline whole cortex suvr <1.29. […] Cholesterol increases trended with increased Cingulate suvr. The results are described in Table 7 and FIG. 15.

[3] = Phase 3 adverse effects; format: in vivo
[4] = tested on: p-IKK beta, p-ERK, p-P38 and p-JNK (Tau phosphorylation); assay: in vitro samples: activation of inflammatory kinases and p-Tau; format: cell-based
Description: Without wishing to be bound by theory, it is believed that 17α-ethynylandrost-5-ene-3β,7β,17β-triol binds to ERK 1 and ERK 2, which decreases inflammatory activation of p-IKK beta, p-JNK, p-ERK and p-P38, thereby decreasing serine IRS1 phosphorylation, restoring tyrosine IRS1 phosphorylation and insulin sensitivity.

[5] = Phase 3 neuropsychiatric inventory; format: in vivo, human; settings: blinded Phase 3 data, NE3107 and placebo pooled
Experimental: Subjects were analyzed for neuropsychiatric inventory. […] An improvement in appetite was also correlated with decreased Cog12, CDR SB and ADCOMS, with increased Alzheimer's disease. A decrease in anxiety was correlated with an increase ADL and decreased CGIC. Sleep improvement was correlated with a decrease in CGIC and decreased in TNFα. The results are described in Table 8 and FIGS. 16A-16B.

[6] = tested on: extracellular signal-regulated kinase; settings: cited from earlier work
[7] = Phase 3 imaging sub-study vMRI; format: in vivo, human; settings: 23 subjects; blinded Phase 3 data, NE3107 and placebo pooled
Experimental: Subjects were analyzed using imaging sub-studies vMRI on 23 subjects. It was observed that the volume was increased in the hippocampus and amygdala. In addition, it was observed a decreased CGIC was correlated with decreased hippocampi volume and increased MCP-1 was correlated with increased whole cortex. The results are described in FIGS. 14A-14B and Table 6.

[8] = tested on: ERK- and NF-κB-stimulated inflammatory mediators, including TNF-α; settings: without inhibiting their homeostatic functions; cited from earlier work
[9] = cited from earlier work
[10] = tested on: CpGs (DNA methylation); assay: Illumina 850K array DNA methylation changes following 14 weeks of bezisterim treatment; format: in vivo, human; settings: for decrease in DNAm: 14 weeks
Experimental: In this study, 23 mild cognitive impaired (“MCI”) and Alzheimer's disease (“AD”) subjects were enrolled based on Clinical Dementia Rating (“CDR”) from their Quick Dementia Rating System (“QDRS”) scale. Advanced MRI imaging (ASL, BOLD, MRS, task-based fMRI) was also performed as well as cognition and memory tests were performed (Cog12, MM SE, QDRS, MoCA). Biomarkers of the subjects were also taken (csf p-Tau, A beta, and plasma TNF) and episome analyses were performed. Finally, a biological clock analysis was performed (DNA methylation profiling).
Illumina® 850K array DNA methylation changes following 14 weeks of bezisterim treatment were sorted and the top 400 decreased CpGs (decreases >50%) were explored for correlations with changes in clinical results following treatment. Of these, 366 have CpG gene identifications.

[11] = P < 0.0001, blinded Phase 3 data, NE3107 and placebo pooled
[12] = blinded Phase 3 data, NE3107 and placebo pooled

SMILES: C#C[C@]1(O)CC[C@H]2[C@@H]3[C@@H](O)C=C4C[C@@H](O)CC[C@]4(C)[C@H]3CC[C@@]21C [NE3107, 17α-ethynylandrost-5-ene-3β,7β,17β-triol]
- Hypoglycemia ([1]; Increased Fasting Insulin: No, blinded Phase 3 data): 2
- Hypoglycemia ([1]; Increased Fasting Insulin: Yes, blinded Phase 3 data): 0
- HOMA2-% B, Change from Baseline [1, 11]: +13.5%, *
- HOMA2-% S, Change from Baseline [1, 11]: −21.2%, *
- Insulin, Change from Baseline [1, 11]: +1.9 μlU/mL,*
- Cholesterol, Change from Baseline [1, 12]: +3.0 mg/dL
- Leptin, V10 median [1, 12]: 29.2 ng/mL
- Leptin DNAm ([1]; in vivo): increase
- MAGE, Change from Baseline ([1]; mean amplitude of glycemic excursion from CGM, blinded Phase 3 data, NE3107 and placebo pooled): -0.57 mg/dL
- Hypoglycemia ([1]; with increased insulin and HOMA2-% B and decreased HOMA2% insulin sensitivity, blinded Phase 3 data): no cases of hypoglycemia
- subjects with increased FDG-PET standardized uptake value ratios (suvr) [2]: 14/24
- subjects discontinued due to a reported AE ([3]; 10 subjects of 439 enrolled, blinded, NE3107 and placebo pooled): 2.3%
- serious AEs ([3]; 12, blinded, NE3107 and placebo pooled): 2.7%
- related AEs ([3]; 43, blinded, NE3107 and placebo pooled): 9.8%
- subjects who experienced 1 or more AEs ([3]; 156 of 439 subjects, blinded, NE3107 and placebo pooled): 35.5%
- serious AEs that resulted in death ([3]; count, not known whether on IP or placebo): 1
- Akt inhibition of GSK 3beta [4]: increased Akt inhibition of GSK 3beta
- activation of inflammatory p-IKK beta, p-ERK, p-P38 and p-JNK ([4]; in vitro samples): decreased activation
- p-Tau ([4]; in vitro samples): decreased p-Tau
- neuropsychiatric inventory, overall improvement in sleep ([5]; p<0.0001): −1.0
- neuropsychiatric inventory, overall improvement in appetite ([5]; p<0.023): −1.0
- binding to extracellular signal-regulated kinase [6]: binds
- vMRI amygdala volume [7]: increased
- vMRI hippocampus volume [7]: increased
- inhibition of inflammation-driven ERK- and NF-κB-stimulated inflammatory mediators, including TNF-α [8]: selectively inhibit
- blood-brain permeability [9]: blood-brain permeable
- DNA methylation decrease of the top 400 decreased CpGs ([10]; 14 weeks of treatment): > 50%
- decrease in DNAm ([10]; HLA-L): 56%
- decrease in DNAm ([10]; KCNQ1DN): 51%
- decrease in DNAm ([10]; SLC26A1): 55%
